Test systems include A549 NSCLC; BT-549 breast; HL-60(TB) leukemia; HS 578T breast; LOX IMVI melanoma; MCF7 breast; OVCAR-8 ovarian; SR leukemia; DMS 273 small cell lung; LXFL 529 NSCLC.
Common to all, as to assay: NCI-60 cell line screen, 48 h

This is an account of results in PubChem BioAssay (NCI).

Where “and” joins values, the source holds several entries; their conditions need not be identical. Equal values may be shown once.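 Grown in 96-well plates, cells were treated for 48 hours with each compound at five concentrations. Insufficient inhibition: endpoint recorded as highest concentration tested. GI50: concentration for 50% inhibition of growth. TGI marks complete inhibition of growth.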

As to `C=C1C(=O)O[C@H]2C[C@@H]1C(=O)CC(C)CCCC(C)=CCC[C@@]2(C)O` (stereo partly drawn), the TGI in the experiment with A549 NSCLC, in the experiment with BT-549 breast, with HL-60(TB) leukemia, in the experiment with HS 578T breast, in the experiment with LOX IMVI melanoma and in the experiment on MCF7 breast was more than 25 µM each time. Besides, the TGI in the experiment with OVCAR-8 ovarian and with SR leukemia was more than 25 µM throughout.

In the case of `O=c1[nH]c(=O)n(C2CC(O)C(CO)O2)cc1C(F)(F)F` (stereo not drawn), the GI50 in the experiment on A549 NSCLC was 3.35 µM; with BT-549 breast, 4.61 µM; with HL-60(TB) leukemia, 0.409 µM; in the experiment with HS 578T breast, more than 100 µM; with LOX IMVI melanoma it was 0.936 µM; in the experiment on MCF7 breast it was 0.038 µM. The results for the GI50 in the experiment with OVCAR-8 ovarian and in the experiment with SR leukemia were 5.12 µM and 1.02 µM, respectively. The TGI in the experiment with A549 NSCLC, in the experiment on BT-549 breast, in the experiment with HS 578T breast, with LOX IMVI melanoma, in the experiment on OVCAR-8 ovarian and in the experiment on SR leukemia was more than 100 µM each time.

For the compound `CC(C)(C)OC(=O)Nc1ccc2c(c1)C(NC(=O)Nc1cccc(C#N)c1)CC(C)(C)O2` (stereo not drawn), the GI50 with A549 NSCLC is 2.9 µM; in the experiment on BT-549 breast, 2.65 µM; in the experiment with HL-60(TB) leukemia, 2.39 µM; in the experiment on HS 578T breast, 8.79 µM; in the experiment with LOX IMVI melanoma it was 1.53 µM; in the experiment with MCF7 breast it was 1.92 µM. The GI50 is 3.13 µM in the experiment on OVCAR-8 ovarian and 2.18 µM in the experiment on SR leukemia. Further, the TGI was more than 100 µM in the experiment on A549 NSCLC; 18 µM in the experiment on BT-549 breast; 22.3 µM in the experiment with HL-60(TB) leukemia; more than 100 µM in the experiment with HS 578T breast; more than 60.5 µM in the experiment on LOX IMVI melanoma; 30.7 µM in the experiment with MCF7 breast. The TGI with OVCAR-8 ovarian worked out at 55.7 µM; in the experiment on SR leukemia, 30 µM.

As to `c1ccc(OC2=NC3=S(S2)SC(Oc2ccccc2)=N3)cc1`, the TGI in the experiment with A549 NSCLC came to 47.6 µM; in the experiment on DMS 273 small cell lung, 85.6 µM; in the experiment on HL-60(TB) leukemia, 42.5 µM; with LOX IMVI melanoma it was 43.4 µM; in the experiment with OVCAR-8 ovarian it was 57.6 µM.

For `COC(=O)N/N=C(\C)CC(=O)Nc1ccc(Cl)cc1`, the TGI in the experiment with A549 NSCLC, in the experiment on HL-60(TB) leukemia, in the experiment with LOX IMVI melanoma, in the experiment with LXFL 529 NSCLC and in the experiment on OVCAR-8 ovarian was more than 100 µM in each case.

Turning to `C[C@H]1C=C2C(=O)O[C@H]3CC[C@@H](C1)[C@@]23O`, the TGI with A549 NSCLC is 34.3 µM; in the experiment with HL-60(TB) leukemia, 4.55 µM; in the experiment with LOX IMVI melanoma it was 10.3 µM; with LXFL 529 NSCLC, 10.6 µM; in the experiment with OVCAR-8 ovarian it was 13.8 µM; in the experiment with SR leukemia, more than 100 µM.

Take `CC(SCc1ccccc1)C(=O)O` (stereo not drawn): the TGI with A549 NSCLC, in the experiment on BT-549 breast, in the experiment on HL-60(TB) leukemia, in the experiment on HS 578T breast, in the experiment with LOX IMVI melanoma and in the experiment with MCF7 breast was more than 100 µM in each case. Moreover, the TGI in the experiment on OVCAR-8 ovarian and in the experiment on SR leukemia was more than 100 µM in each case.

Regarding `CC(=O)NN1C(=O)C(Cc2ccccc2)c2ccccc21` (stereo not drawn), the TGI in the experiment with A549 NSCLC, with DMS 273 small cell lung, in the experiment with LOX IMVI melanoma and in the experiment on OVCAR-8 ovarian was more than 100 µM in each case.

Consider `COC(=O)[C@H](Cc1cn(C)cn1)NC(=O)[C@H](Cc1ccccc1)NC(=O)Nc1cc(C(F)(F)F)cc(C(F)(F)F)c1`, for which the GI50 was 16.1 µM in the experiment on A549 NSCLC; 19.2 µM with BT-549 breast; 16.5 µM in the experiment with HL-60(TB) leukemia; 15.1 µM in the experiment on HS 578T breast; 2.5 µM and 7.46 µM in the experiment on LOX IMVI melanoma; 2.58 µM and 5.03 µM with MCF7 breast. In addition, the GI50 in the experiment with OVCAR-8 ovarian is 8.26 µM and 9.71 µM; with SR leukemia, 2.54 µM and 2.21 µM. The TGI was 31.6 µM in the experiment on A549 NSCLC; 34.5 µM in the experiment on BT-549 breast; 32.7 µM in the experiment with HL-60(TB) leukemia; 45.1 µM in the experiment with HS 578T breast; 9.27 µM and 20.6 µM in the experiment with LOX IMVI melanoma; 9.73 µM and 29.4 µM with MCF7 breast. Moreover, the TGI in the experiment with OVCAR-8 ovarian was 22.7 µM; in the experiment with SR leukemia, 6.07 µM and 5.05 µM.

As for `O=C(/C=C/C12c3ccccc3C(c3ccccc31)C1C(=O)NC(=O)C12)c1ccccc1` (stereo not drawn), the GI50 in the experiment on A549 NSCLC was 2.65 µM; with BT-549 breast, 1.4 µM; in the experiment with HL-60(TB) leukemia, 1.5 µM; in the experiment with HS 578T breast, 2.19 µM; with LOX IMVI melanoma, 1.63 µM; with MCF7 breast, 1.45 µM. Besides, the GI50 in the experiment with OVCAR-8 ovarian was 1.72 µM; in the experiment on SR leukemia, 1.57 µM. For the same compound, the TGI came out at 11.8 µM with A549 NSCLC; 2.84 µM in the experiment on BT-549 breast; 5.97 µM in the experiment with HL-60(TB) leukemia; 7.68 µM in the experiment on HS 578T breast; 3.12 µM in the experiment on LOX IMVI melanoma; 7.6 µM in the experiment on MCF7 breast. Also, the TGI in the experiment with OVCAR-8 ovarian was 5.1 µM; in the experiment on SR leukemia, 17.6 µM.

Consider `O=C([O-])CC(=O)[O-].[NH-][C@@H]1CCCC[C@H]1[NH-].[Pt+4]`, for which the GI50 in the experiment with A549 NSCLC was 11.1 µM; in the experiment on BT-549 breast, 32.8 µM; in the experiment on HL-60(TB) leukemia, 6.31 µM; in the experiment on HS 578T breast, 19.6 µM; with LOX IMVI melanoma, 15 µM; in the experiment with LXFL 529 NSCLC it was 25.2 µM. Further, the GI50 with OVCAR-8 ovarian is 24.5 µM. Also, the TGI in the experiment with A549 NSCLC, in the experiment with BT-549 breast, with HL-60(TB) leukemia, in the experiment with HS 578T breast, in the experiment on LOX IMVI melanoma and with LXFL 529 NSCLC was more than 100 µM in each case. Also, the TGI in the experiment on OVCAR-8 ovarian is more than 100 µM.

With `CC(=O)[CH-]C(=O)c1ccccc1.CC(=O)[CH-]C(=O)c1ccccc1.[O-]c1ccc2c(c1)OCO2.[O-]c1ccc2c(c1)OCO2.[Ti+4]`, the GI50 is 41.7 µM with A549 NSCLC; 10.7 µM in the experiment on HL-60(TB) leukemia; 18.2 µM in the experiment on LOX IMVI melanoma; 19.3 µM with LXFL 529 NSCLC; 34.4 µM in the experiment with OVCAR-8 ovarian. The TGI was more than 100 µM in the experiment on A549 NSCLC; 48 µM in the experiment with HL-60(TB) leukemia; 55 µM in the experiment with LOX IMVI melanoma; 49.9 µM with LXFL 529 NSCLC; more than 100 µM in the experiment on OVCAR-8 ovarian.

Regarding `CCCCn1c(=O)c(/C=C/C(=O)/C=C/c2cc3ccccc3n(CCCC)c2=O)cc2ccccc21`, the GI50 is 1.56 µM in the experiment on A549 NSCLC; 0.702 µM with BT-549 breast; 1.71 µM in the experiment on HL-60(TB) leukemia; 3.01 µM with HS 578T breast; 1.24 µM in the experiment on LOX IMVI melanoma; 0.306 µM with MCF7 breast. For the same compound, the GI50 with OVCAR-8 ovarian is 1.5 µM; in the experiment on SR leukemia, 0.315 µM. Besides, the TGI turned out to be 3.17 µM in the experiment on A549 NSCLC; 2.2 µM in the experiment with BT-549 breast; 6.63 µM in the experiment on HL-60(TB) leukemia; 23.7 µM in the experiment on HS 578T breast; 2.7 µM in the experiment on LOX IMVI melanoma; 1.84 µM with MCF7 breast. Also, the TGI was 4.12 µM with OVCAR-8 ovarian and more than 100 µM in the experiment on SR leukemia.
